The results in this text go back to ChEMBL document CHEMBL5247586, “Discovery of fusidic acid derivatives as novel STING inhibitors for treatment of sepsis” (Eur J Med Chem, 2022).

In data set [1] the test system is RAW264.7. Put plainly: Anti inflammatory activity in LPS-induced mouse RAW264.7 cells assessed as inhibition of NO production at 2.5 uM preincubated with compound for 2 hrs followed by LPS stimulation and measured after 24 hrs by griess reagent based assay relative to control. Format: functional. Conditions: time 26 hrs.
Data set [2] in a line: Cytotoxicity against mouse RAW264.7 cells assessed as cell viability at 40 uM measured after 24 hrs by MTT assay relative to control. Format: toxicity, cell-based. The conditions noted are these: read-out: Activity.
Data set [3] concerns RAW264.7. The data set can be described thus: Anti inflammatory activity in LPS-induced mouse RAW264.7 cells assessed as inhibition of NO production at 5 uM preincubated with compound for 2 hrs followed by LPS stimulation and measured after 24 hrs by griess reagent based assay relative to control. Format: functional. Conditions: time 26 hrs.
In data set [4] the test system is RAW264.7. The data set can be described thus: Anti inflammatory activity in LPS-induced mouse RAW264.7 cells assessed as inhibition of NO production preincubated with compound for 2 hrs followed by LPS stimulation and measured after 24 hrs by griess reagent based assay. Format: functional, cell-based.

As to `C=CCONC(=O)c1ccccc1C(=O)O[C@@H]1CC[C@@]2(C)[C@@H](CC[C@@]3(C)[C@H]2[C@H](O)C[C@H]2/C(=C(\CCC=C(C)C)C(=O)OCc4ccccc4)[C@@H](OC(C)=O)C[C@@]23C)[C@@H]1C`, the inhibition at 2.5 µM in the data set with RAW264.7 [1] was 24.7%. Further, the viability at 24 h, 40 µM in data set [2] was 101%. Also, the inhibition at 5 µM in the data set on RAW264.7 [3] stood at 39.3%. Besides, in the data set on RAW264.7 [4], the IC50 is 8.92 µM.
In the case of `CC(=O)O[C@H]1C[C@@]2(C)[C@@H](C[C@@H](O)[C@H]3[C@@]4(C)CC[C@@H](OC(=O)CCSSCCC(=O)NOC(=O)c5ccc([N+](=O)[O-])cc5)[C@@H](C)[C@@H]4CC[C@@]32C)/C1=C(\CCC=C(C)C)C(=O)OCc1ccccc1`, the inhibition at 2.5 µM in the data set on RAW264.7 [1] stood at 33.3%. Besides, the viability at 24 h, 40 µM in data set [2] is 91%. Also, the inhibition at 5 µM in the data set on RAW264.7 [3] worked out at 44.8%. In addition, in the data set on RAW264.7 [4], the IC50 was determined as 10 µM.
For `CC(=O)O[C@H]1C[C@@]2(C)[C@@H](C[C@@H](O)[C@H]3[C@@]4(C)CC[C@@H](OC(=O)c5ccccc5C(=O)N5CCCCC5)[C@@H](C)[C@@H]4CC[C@@]32C)/C1=C(\CCC=C(C)C)C(=O)OCc1ccccc1`, the inhibition at 2.5 µM in the data set with RAW264.7 [1] is 16.9%. Also, the viability at 24 h, 40 µM in data set [2] is 103%. Besides, the inhibition at 5 µM in the data set with RAW264.7 [3] was determined as 30.8%. In addition, the IC50 in the data set on RAW264.7 [4] came out at 11.6 µM.
